ChEMBL document CHEMBL1201862, “PubChem BioAssay data set” (2004)
Activity calls are given as the source filed them.

What was measured:
[1] = molecular target: Transitional endoplasmic reticulum ATPase (Homo sapiens, UniProt P55072, C522A); experiment: Luminescence counterscreen assay for p97 inhibitors: dose response biochemical high throughput screening assay to identify inhibitors of the C522A mutant p97 ATPase: synthesized compounds. [Related pubchem assays: 1481, 1517, 1551 ]
[2] = molecular target: Transitional endoplasmic reticulum ATPase (Homo sapiens, UniProt P55072); experiment: Luminescence dose response biochemical high throughput screening assay for inhibitors of the p97 ATPase: synthesized compounds. [Related pubchem assays: 1481, 1517 ]
Sequence of Transitional endoplasmic reticulum ATPase (Homo sapiens, UniProt P55072) (P55072 whole entry): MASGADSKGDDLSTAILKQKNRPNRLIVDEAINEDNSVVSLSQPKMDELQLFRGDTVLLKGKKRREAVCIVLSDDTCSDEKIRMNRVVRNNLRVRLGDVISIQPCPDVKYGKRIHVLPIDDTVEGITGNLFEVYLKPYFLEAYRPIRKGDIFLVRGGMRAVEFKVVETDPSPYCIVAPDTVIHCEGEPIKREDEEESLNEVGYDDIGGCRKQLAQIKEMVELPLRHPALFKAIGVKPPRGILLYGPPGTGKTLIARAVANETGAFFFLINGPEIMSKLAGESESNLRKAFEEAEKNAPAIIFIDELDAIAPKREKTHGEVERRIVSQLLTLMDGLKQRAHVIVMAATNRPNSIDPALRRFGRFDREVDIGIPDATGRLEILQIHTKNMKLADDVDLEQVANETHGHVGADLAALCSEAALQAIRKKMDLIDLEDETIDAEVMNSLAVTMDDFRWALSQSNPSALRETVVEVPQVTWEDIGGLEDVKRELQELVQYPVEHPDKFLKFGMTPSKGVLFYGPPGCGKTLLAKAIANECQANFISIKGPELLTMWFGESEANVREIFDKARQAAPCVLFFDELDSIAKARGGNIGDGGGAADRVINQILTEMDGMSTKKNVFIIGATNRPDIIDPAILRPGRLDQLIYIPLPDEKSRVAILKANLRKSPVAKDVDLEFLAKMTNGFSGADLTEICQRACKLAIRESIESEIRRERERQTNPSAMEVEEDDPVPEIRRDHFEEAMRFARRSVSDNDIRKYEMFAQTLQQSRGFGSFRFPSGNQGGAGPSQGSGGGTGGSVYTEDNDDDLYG

A-375 [3] = experiment: MITF: Counter assay: A375 proliferation Measured in Cell-Based System Using Plate Reader - 2084-03_Inhibitor_Dose_DryPowder_Activity. [Related pubchem assays (depositor defined):AID488944]; assay type: functional; details: Homo sapiens
CHO = experiment: cytotoxicity in TLR9-MyD88 CHO cells, dose response, cytotoxicity control for TLR9-MyD88 binding inhibitor project, cell-based, luminescence (AID 588339); assay type: functional, hamster; details: Cricetulus griseus;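 note: CHO cells stably coexpressing TLR9 and MyD88 fusions from primary screen; compound exposure lasted 48 hours before viability readout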
Protein RecA = molecular target: T1, Protein RecA (Mycobacterium tuberculosis, UniProt P9WHJ3); experiment: Fluorescence Cell-Free Homogeneous Dose Retest to Identify Inhibitors of RecA-Intein Splicing Activity. [Related pubchem assays (depositor defined):AID2097, AID2223, AID489010, AID492950]; assay type: functional
T1 sequence (P9WHJ3 whole entry): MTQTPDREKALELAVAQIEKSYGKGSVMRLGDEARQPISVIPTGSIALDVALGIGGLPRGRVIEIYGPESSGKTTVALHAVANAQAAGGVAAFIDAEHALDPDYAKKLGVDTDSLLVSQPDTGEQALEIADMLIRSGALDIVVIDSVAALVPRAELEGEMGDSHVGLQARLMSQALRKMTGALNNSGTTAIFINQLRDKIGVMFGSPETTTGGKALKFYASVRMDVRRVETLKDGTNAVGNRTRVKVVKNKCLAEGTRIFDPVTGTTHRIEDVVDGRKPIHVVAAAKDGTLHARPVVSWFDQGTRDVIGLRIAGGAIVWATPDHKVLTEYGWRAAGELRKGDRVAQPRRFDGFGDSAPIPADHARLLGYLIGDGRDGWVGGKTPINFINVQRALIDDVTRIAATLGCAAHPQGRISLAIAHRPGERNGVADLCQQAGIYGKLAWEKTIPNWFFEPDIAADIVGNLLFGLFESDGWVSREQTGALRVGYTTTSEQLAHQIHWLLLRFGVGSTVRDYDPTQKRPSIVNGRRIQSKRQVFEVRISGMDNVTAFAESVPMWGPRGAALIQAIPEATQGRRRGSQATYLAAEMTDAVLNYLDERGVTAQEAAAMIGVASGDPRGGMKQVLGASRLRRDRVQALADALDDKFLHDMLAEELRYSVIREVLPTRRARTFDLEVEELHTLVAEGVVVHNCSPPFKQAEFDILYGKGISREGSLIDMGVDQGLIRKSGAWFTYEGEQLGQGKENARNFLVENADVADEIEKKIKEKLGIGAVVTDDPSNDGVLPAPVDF

[4] = molecular target: Luciferin 4-monooxygenase (Photinus pyralis, UniProt P08659); experiment: firefly luciferase enzyme inhibitors, dose response, biochemical, luminescence (AID 1891)
Sequence of Luciferin 4-monooxygenase (P08659 whole entry): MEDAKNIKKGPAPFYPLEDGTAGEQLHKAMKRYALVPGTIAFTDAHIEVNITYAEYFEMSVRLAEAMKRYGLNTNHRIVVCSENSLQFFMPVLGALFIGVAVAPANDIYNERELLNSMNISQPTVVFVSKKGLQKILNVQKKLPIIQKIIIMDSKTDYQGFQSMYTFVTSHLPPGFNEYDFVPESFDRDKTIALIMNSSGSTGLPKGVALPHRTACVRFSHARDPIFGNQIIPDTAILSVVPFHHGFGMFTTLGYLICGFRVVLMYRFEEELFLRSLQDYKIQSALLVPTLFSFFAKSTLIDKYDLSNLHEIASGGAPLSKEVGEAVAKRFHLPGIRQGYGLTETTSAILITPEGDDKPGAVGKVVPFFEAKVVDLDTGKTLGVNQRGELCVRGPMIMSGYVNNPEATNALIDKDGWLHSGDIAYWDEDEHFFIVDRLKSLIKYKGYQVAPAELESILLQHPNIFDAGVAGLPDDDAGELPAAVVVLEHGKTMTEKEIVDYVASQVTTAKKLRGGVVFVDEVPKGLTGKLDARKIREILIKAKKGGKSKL

Paired box protein Pax-8 = Paired box protein Pax-8 (Homo sapiens, UniProt Q06710); experiment: inhibitors of PAX8-driven TPO luciferase reporter, dose response, RMG-I cells, cherry-pick (AID 687027); assay type: functional, cell-based;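 note: luciferase reporter driven by Pax8 target thyroperoxidase promoter measured by SteadyGlo luminescence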
Sequence of Paired box protein Pax-8 (Q06710 whole entry): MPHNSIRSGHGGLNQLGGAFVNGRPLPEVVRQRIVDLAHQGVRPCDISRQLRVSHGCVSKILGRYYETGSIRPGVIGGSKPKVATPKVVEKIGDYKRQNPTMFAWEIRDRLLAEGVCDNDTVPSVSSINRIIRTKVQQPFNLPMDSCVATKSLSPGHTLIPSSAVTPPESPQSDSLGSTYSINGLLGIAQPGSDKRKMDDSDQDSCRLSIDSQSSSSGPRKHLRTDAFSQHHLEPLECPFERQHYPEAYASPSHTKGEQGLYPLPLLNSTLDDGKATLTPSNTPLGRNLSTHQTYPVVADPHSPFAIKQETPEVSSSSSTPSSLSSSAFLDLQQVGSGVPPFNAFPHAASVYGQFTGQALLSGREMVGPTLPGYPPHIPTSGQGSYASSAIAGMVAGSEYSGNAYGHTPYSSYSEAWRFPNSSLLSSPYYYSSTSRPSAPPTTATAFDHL

Beta Lactamase = Beta Lactamase (Pseudomonas aeruginosa, UniProt Q932Y6); experiment: beta-lactamase reporter inhibitor potency, dose response, artefact control for TLR9-MyD88 binding inhibitor project, BLA reporter cells, FRET fluorescence (AID 588341); assay type: cell-based;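 note: cell based assay in CHO-K1 cells stably expressing beta-lactamase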
Sequence of Beta Lactamase (Q932Y6 whole entry): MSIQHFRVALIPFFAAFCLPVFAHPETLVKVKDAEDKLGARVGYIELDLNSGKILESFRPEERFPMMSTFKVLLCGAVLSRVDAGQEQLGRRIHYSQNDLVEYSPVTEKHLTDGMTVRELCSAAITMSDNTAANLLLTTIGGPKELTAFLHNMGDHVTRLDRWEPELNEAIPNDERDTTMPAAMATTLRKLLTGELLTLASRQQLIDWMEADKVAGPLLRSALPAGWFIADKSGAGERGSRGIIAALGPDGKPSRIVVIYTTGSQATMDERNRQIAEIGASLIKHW

[5] = molecular target: T2, Sphingosine 1-phosphate receptor 4 (Homo sapiens, UniProt O95977); experiment: Fluorescence dose response cell-based high throughput screening assay for antagonists of the Sphingosine 1-Phosphate Receptor 4 (S1P4). [Related pubchem assays: 1524 (Confirmation in triplicates.), 1510 (Primary screen.)]; assay type: functional
T2 sequence (O95977 whole entry): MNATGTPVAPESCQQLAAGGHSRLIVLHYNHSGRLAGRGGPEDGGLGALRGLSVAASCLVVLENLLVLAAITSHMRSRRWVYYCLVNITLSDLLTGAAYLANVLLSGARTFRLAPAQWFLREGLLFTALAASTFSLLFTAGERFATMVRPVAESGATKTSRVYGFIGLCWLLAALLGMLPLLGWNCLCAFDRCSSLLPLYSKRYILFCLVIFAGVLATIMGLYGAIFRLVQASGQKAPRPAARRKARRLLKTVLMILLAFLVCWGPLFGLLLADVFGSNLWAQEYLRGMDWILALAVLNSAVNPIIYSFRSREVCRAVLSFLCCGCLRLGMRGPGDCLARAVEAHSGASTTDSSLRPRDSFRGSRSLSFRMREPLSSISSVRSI

[6] = Luminescence Cell-Based Dose Confirmation HTS to Identify Inhibitors of Platelet Dense Granule Release. [Related pubchem assays: 1663 (Primary HTS), 1678 (Summary of Project)]; assay type: functional
A-375 [7] = experiment: A375 melanoma cell viability reduction, dose response, counter-screen for MITF modulator project, cherry-pick samples, set 2 (AID 540335); assay type: functional, cell-based; details: Homo sapiens
[8] = Fluorescence Cell-Based Dose Response to Identify Inhibitors of Thrombin Receptor-Activating Peptide SFLLRN-Mediated P-Selectin Induction on Platelets. [Related pubchem assays: 1663 (Primary HTS), 1889 (retest at dose ), 1891 (counterscreen), 1678 (Project Summary)]; assay type: functional
[9] = molecular target: T3, Replicative DNA helicase DnaB (Mycobacterium tuberculosis, UniProt P9WMR3); experiment: DnaB intein splicing inhibitors, dose response, biochemical, cell-free fluorescence (AID 449749); assay type: functional
T3 sequence (P9WMR3 whole entry): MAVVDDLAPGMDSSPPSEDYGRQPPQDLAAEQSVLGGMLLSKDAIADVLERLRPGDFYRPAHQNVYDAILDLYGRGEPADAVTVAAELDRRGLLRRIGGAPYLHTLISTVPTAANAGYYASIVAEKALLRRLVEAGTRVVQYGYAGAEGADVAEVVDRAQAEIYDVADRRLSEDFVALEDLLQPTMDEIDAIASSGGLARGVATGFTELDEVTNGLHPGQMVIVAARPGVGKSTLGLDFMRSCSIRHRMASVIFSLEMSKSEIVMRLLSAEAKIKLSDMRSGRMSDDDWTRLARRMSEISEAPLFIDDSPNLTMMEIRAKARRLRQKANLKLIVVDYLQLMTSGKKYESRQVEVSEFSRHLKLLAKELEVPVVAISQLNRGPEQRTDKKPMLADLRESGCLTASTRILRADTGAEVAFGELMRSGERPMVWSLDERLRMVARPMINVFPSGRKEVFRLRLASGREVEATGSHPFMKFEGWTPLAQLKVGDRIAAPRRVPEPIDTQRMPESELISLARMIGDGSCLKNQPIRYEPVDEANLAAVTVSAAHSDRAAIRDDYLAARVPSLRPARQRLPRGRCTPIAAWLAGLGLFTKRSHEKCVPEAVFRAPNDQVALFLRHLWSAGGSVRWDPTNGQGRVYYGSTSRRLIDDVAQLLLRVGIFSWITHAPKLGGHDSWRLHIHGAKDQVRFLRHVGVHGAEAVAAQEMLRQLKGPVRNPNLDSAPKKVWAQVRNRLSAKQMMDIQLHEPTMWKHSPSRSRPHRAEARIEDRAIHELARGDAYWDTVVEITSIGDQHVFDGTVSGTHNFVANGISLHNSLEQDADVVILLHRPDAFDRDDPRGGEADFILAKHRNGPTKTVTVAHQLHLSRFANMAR

[10] = molecular target: Sphingosine 1-phosphate receptor 1 (Homo sapiens, UniProt P21453); assay type: functional;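 note: Tango beta-arrestin reporter U2OS cells stimulated with S1P near its EC80; inhibitor potency meaning antagonism of receptor activation by the natural agonist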
Sequence of Sphingosine 1-phosphate receptor 1 (P21453 whole entry): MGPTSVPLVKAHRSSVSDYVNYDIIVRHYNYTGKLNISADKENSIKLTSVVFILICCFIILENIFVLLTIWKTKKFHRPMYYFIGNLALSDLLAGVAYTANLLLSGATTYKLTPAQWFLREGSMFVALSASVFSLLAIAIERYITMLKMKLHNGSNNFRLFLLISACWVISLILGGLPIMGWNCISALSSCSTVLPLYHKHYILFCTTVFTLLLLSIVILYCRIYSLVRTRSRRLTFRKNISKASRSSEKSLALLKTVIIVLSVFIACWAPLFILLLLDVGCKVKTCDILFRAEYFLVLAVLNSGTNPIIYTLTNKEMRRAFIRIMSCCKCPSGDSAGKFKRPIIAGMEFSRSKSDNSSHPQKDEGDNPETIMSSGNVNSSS

[11] = cytotoxicity in HPDE-C7 cells, cell-based, fluorescence, HTS (AID 430); assay type: functional; details: Homo sapiens
Cytochrome P450 2C19 = Cytochrome P450 2C19 (Homo sapiens, UniProt P33261); experiment: qHTS Assay for Inhibitors and Substrates of Cytochrome P450 2C19. [Related pubchem assays: 410 ]; assay type: ADME; details: read-out: Potency
Sequence of Cytochrome P450 2C19 (P33261 whole entry): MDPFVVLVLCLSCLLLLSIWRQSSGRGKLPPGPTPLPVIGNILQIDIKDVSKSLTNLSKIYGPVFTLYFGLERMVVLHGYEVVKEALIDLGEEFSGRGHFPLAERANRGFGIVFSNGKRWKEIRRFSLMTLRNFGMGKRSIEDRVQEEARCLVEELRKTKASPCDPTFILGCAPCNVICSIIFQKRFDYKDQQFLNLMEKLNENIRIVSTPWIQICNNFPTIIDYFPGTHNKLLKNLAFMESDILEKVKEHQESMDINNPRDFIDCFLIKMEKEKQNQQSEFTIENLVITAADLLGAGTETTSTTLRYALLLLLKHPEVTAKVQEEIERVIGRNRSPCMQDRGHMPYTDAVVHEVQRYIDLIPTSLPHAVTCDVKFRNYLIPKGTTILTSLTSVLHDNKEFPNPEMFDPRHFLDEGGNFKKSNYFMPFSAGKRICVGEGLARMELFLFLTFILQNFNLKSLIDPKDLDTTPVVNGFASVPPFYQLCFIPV

[12] = cytotoxicity in KRAS-transformed pancreatic duct cells, primary screen, cell-based, fluorescence, HTS (AID 431); assay type: functional; details: Homo sapiens;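 note: cell line used: HPDE-C7K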

Sequence of Transitional endoplasmic reticulum ATPase (Homo sapiens, UniProt P55072, C522A) (P55072 2-806 C522A limits assumed): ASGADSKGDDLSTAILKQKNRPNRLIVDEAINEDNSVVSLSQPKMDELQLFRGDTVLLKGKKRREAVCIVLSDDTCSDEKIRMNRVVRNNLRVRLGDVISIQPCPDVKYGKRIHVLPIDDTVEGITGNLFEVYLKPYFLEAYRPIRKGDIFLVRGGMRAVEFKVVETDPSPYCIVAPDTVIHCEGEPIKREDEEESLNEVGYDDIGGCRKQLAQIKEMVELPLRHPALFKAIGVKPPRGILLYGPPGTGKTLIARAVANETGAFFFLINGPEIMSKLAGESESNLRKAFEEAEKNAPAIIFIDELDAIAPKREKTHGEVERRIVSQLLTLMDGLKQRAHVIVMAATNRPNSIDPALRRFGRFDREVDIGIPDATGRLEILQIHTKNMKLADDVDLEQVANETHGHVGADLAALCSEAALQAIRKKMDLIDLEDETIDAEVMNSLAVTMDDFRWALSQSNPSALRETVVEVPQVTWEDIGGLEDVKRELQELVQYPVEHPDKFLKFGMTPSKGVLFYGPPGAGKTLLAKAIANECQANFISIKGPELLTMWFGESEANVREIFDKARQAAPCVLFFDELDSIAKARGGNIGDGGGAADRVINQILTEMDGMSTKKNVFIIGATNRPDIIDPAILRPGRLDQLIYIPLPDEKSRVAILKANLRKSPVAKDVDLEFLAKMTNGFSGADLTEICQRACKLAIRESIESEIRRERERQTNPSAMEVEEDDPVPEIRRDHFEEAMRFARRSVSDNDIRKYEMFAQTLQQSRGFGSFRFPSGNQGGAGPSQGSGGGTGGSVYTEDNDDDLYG

CCOC(=O)/C(C#N)=C/c1ccc(C#N)cc1
IC50 [1]: > 50 µM (not active) | IC50 [2]: > 50 µM (not active)

CS(=O)(=O)c1ncc(Cl)c(C(=O)Nc2ccc3ccccc3c2)n1
AC50 (A-375 [3]): > 35 µM (active) | IC50 (CHO): 1.95 µM (active) | EC50 (Protein RecA): 4.84 µM (active) | EC50 [4]: > 112 µM (not active) | AC50 (Paired box protein Pax-8): 7.81 µM (active) | IC50 (Beta Lactamase): 7.13 µM (active) | IC50 [5]: 2.07 µM (active) | EC50 [6]: 3.6 µM (active) | AC50 (A-375 [7]): > 35 µM (active) | EC50 [8]: < 30 µM (active) | AC50 [9]: 2.49 µM (active) | IC50 [10]: > 5.53 µM (not active)

Cc1nc2sccn2c(=O)c1CCN1CCC(=C(c2ccccc2)c2ccc(F)cc2)CC1
EC50 [11]: 18.3 µM (active) | AC50 (Cytochrome P450 2C19): 15.8 µM (inconclusive) | EC50 [12]: 17.4 µM (active)
